# Laboratory results from US20260286295A1, “COMPOSITION FOR INDUCING DIRECT DIFFERENTIATION OF STEM CELLS INTO CORNEAL ENDOTHELIAL CELLS AND METHOD FOR INDUCING DIRECT DIFFERENTIATION USING SAME” (THE ASAN FOUNDATION, priority 2023, published 2026).
# Test system: iPSCs
# Experiment: ZO-1 immunocytochemical staining, efficiency of direct differentiation of iPSCs into CECs
# Type: cell-based, human
# Settings: concluded from culture media that omit the constituent (Examples 3-4 to 3-7)
# Experimental: To compare the effect on differentiation efficiency using ZO-1 marker staining of iPSC-derived CECs, CECs were fixed in 4% paraformaldehyde for 30 minutes, washed with PBS buffer, permeabilized with 0.5% Triton X-100, and blocked in PBST containing 1% bovine serum albumin (Sigma-Aldrich). […] Nuclei were counterstained for 10 minutes with 4′,6-diamidino-2-phenylindole (DAPI; Sigma-Aldrich), and fluorescence signals were detected using a laser scanning confocal microscope (Olympus, Tokyo, Japan) or a fluorescence microscope (EVOS, Life Technologies).
row,SMILES,role of the constituent in direct differentiation from iPSCs into CECs
1,"Cc1cncc2cccc(S(=O)(=O)N3CCCNC[C@@H]3C)c12 [Example H-1152, (2S)-2-methyl-1-[(4-methyl-5-isoquinolinyl)sulfonyl]hexahydro-1H-1,4-diazepine]",important
2,"O=S(=O)(c1cccc2cnccc12)N1CCCNCC1 [Fasudil, fasudil]",important
3,"NC(=O)c1ccc(-c2nc(-c3ccc4c(c3)OCO4)c(-c3ccccn3)[nH]2)cc1 [SB431542, 4-[4-(2H-1,3-benzodioxol-5-yl)-5-(pyridin-2-yl)-1H-imidazol-2-yl]benzamide]",important
